# From ChEMBL document CHEMBL1201862, “PubChem BioAssay data set” (2004)
#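 Values below derive from 48-hour exposures of cells grown in 96-well plates, with endpoints linearly interpolated between the two concentrations bracketing the appropriate inhibition level. At the GI50, growth is halved.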 Activity calls are given as the source filed them. Cut-off read from the data, not from the text of the source: active = GI50 up to about 1.1 µM and inactive = higher.
# Key:
# Assay in all cases: NCI anticancer screen, dose series, 48 h
# SK-MEL-28 = system: SK-MEL-28
# SNB-75 = system: SNB-75
# SK-MEL-5 = system: SK-MEL-5
# CAKI-1 = system: CAKI-1
# UACC-257 = system: UACC-257
# ACHN = system: ACHN
# RXF 393 = system: RXF 393
# SNB-19 = system: SNB-19
# SF-539 = system: SF-539
# OVCAR-4 = system: OVCAR-4
# COLO 205 = system: COLO 205
# HL-60 = system: HL-60
# NCI-H460 = system: NCI-H460
# MOLT-4 = system: MOLT-4
# UO-31 = system: UO-31
# OVCAR-3 = system: OVCAR-3
# KM12 = system: KM12
# NCI-H226 = system: NCI-H226
Structure (SMILES),GI50 (SK-MEL-28),GI50 (SNB-75),GI50 (SK-MEL-5),GI50 (CAKI-1),GI50 (UACC-257),GI50 (ACHN),GI50 (RXF 393),GI50 (SNB-19),GI50 (SF-539),GI50 (OVCAR-4),GI50 (COLO 205),GI50 (HL-60),GI50 (NCI-H460),GI50 (MOLT-4),GI50 (UO-31),GI50 (OVCAR-3),GI50 (KM12),GI50 (NCI-H226)
Nc1ccccc1S(=O)(=O)N(CC(=O)O)c1ccccc1,> 100 µM (inactive),> 100 µM (inactive),> 100 µM (inactive),> 100 µM (inactive),> 100 µM (inactive),> 100 µM (inactive),> 100 µM (inactive),> 100 µM (inactive),> 100 µM (inactive),> 100 µM (inactive),> 100 µM (inactive),> 100 µM (inactive),> 100 µM (inactive),> 100 µM (inactive),> 100 µM (inactive),,,
Nc1c(Cl)ncnc1NCCCCCCCCCCCCNc1ncnc(Cl)c1N,2.14 µM (inactive),1.28 µM (inactive),< 0.01 µM (active),,0.0671 µM (active),,1.54 µM (inactive),4.57 µM (inactive),3.37 µM (inactive),1.99 µM (inactive),8.24 µM (inactive),0.051 µM (active),1.9 µM (inactive),0.167 µM (active),1.05 µM (active),< 0.01 µM (active),3.12 µM (inactive),
O=C(CNc1nncs1)NO,> 100 µM (inactive),> 100 µM (inactive),,,> 100 µM (inactive),> 100 µM (inactive),> 100 µM (inactive),> 100 µM (inactive),> 100 µM (inactive),> 100 µM (inactive),> 100 µM (inactive),> 100 µM (inactive),> 100 µM (inactive),> 100 µM (inactive),> 100 µM (inactive),> 100 µM (inactive),> 100 µM (inactive),
N#CC(C#N)=Cc1cccc(Oc2ccccc2)c1,13.8 µM (inactive),29.2 µM (inactive),18.9 µM (inactive),25.6 µM (inactive),16.8 µM (inactive),18.2 µM (inactive),17.7 µM (inactive),22 µM (inactive),18.4 µM (inactive),,29 µM (inactive),18.5 µM (inactive),25.5 µM (inactive),25 µM (inactive),15.9 µM (inactive),23 µM (inactive),22.3 µM (inactive),33 µM (inactive)
Cc1ccc(S(=O)(=O)NC2CCCCO2)cc1 (centres undefined),> 100 µM (inactive),> 100 µM (inactive),> 100 µM (inactive),> 100 µM (inactive),> 100 µM (inactive),> 100 µM (inactive),> 100 µM (inactive),> 100 µM (inactive),> 100 µM (inactive),> 100 µM (inactive),> 100 µM (inactive),,> 100 µM (inactive),> 100 µM (inactive),> 100 µM (inactive),> 100 µM (inactive),> 100 µM (inactive),> 100 µM (inactive)
Cn1cnc([N+](=O)[O-])c1Sc1nc2cccnc2s1,16.5 µM (inactive),25.2 µM (inactive),19.7 µM (inactive),7.93 µM (inactive),13.3 µM (inactive),24.5 µM (inactive),17.8 µM (inactive),78.9 µM (inactive),19.8 µM (inactive),12.1 µM (inactive),10.3 µM (inactive),,34.1 µM (inactive),10.4 µM (inactive),17.1 µM (inactive),14.6 µM (inactive),31.6 µM (inactive),17.1 µM (inactive)
CC1C(=O)CCC1C(Sc1ccccc1)(Sc1ccccc1)Sc1ccccc1 (centres undefined),22.1 µM (inactive),17.1 µM (inactive),16.9 µM (inactive),16.9 µM (inactive),31.5 µM (inactive),19.9 µM (inactive),14.2 µM (inactive),26.5 µM (inactive),18.7 µM (inactive),18.8 µM (inactive),38.2 µM (inactive),5.83 µM (inactive),41.4 µM (inactive),4.73 µM (inactive),1.32 µM (inactive),17.6 µM (inactive),24.7 µM (inactive),
CCC1(CN(C)C)CC/C(=C\c2ccc(OC)c(OC)c2)C1=O (centres undefined),> 100 µM (inactive),> 67.8 µM (inactive),> 74.3 µM (inactive),74.5 µM (inactive),> 100 µM (inactive),> 100 µM (inactive),> 100 µM (inactive),> 100 µM (inactive),> 100 µM (inactive),> 100 µM (inactive),76.6 µM (inactive),,> 100 µM (inactive),40.2 µM (inactive),> 100 µM (inactive),97.9 µM (inactive),> 100 µM (inactive),> 100 µM (inactive)
COc1cc2c(c(OC)c1OC)-c1ccc(SC)c(=O)cc1[C@@H](NC(=O)c1ccc([N+](=O)[O-])cc1)CC2,4.45 µM (inactive),10.7 µM (inactive),< 0.0025 µM (active),,< 0.0025 µM (active),0.00555 µM (active),< 0.0025 µM (active),,< 0.0025 µM (active),0.123 µM (active),< 0.0025 µM (active),< 0.0025 µM (active),0.00327 µM (active),0.00289 µM (active),0.00579 µM (active),< 0.0025 µM (active),< 0.0025 µM (active),< 0.01 µM (active)
CCN(CC)CCNC(=O)c1ccccc1Nc1c(Cl)cccc1Cl,18.3 µM (inactive),11.2 µM (inactive),11.8 µM (inactive),,15.1 µM (inactive),17.5 µM (inactive),12.3 µM (inactive),16.4 µM (inactive),17 µM (inactive),14.8 µM (inactive),12.9 µM (inactive),7.41 µM (inactive),4.39 µM (inactive),13.1 µM (inactive),9.95 µM (inactive),,,17.8 µM (inactive)
CC(=O)OCC(OC(C)=O)C(OC(C)=O)C(OC(C)=O)C(=O)CNn1c(-c2ccccc2Cl)nc2ccc(Br)cc2c1=O (centres undefined),> 100 µM (inactive),59.8 µM (inactive),57.5 µM (inactive),38.3 µM (inactive),> 100 µM (inactive),> 100 µM (inactive),67 µM (inactive),81.1 µM (inactive),> 100 µM (inactive),87.1 µM (inactive),> 100 µM (inactive),23.8 µM (inactive),> 100 µM (inactive),34.6 µM (inactive),85.5 µM (inactive),62.2 µM (inactive),> 100 µM (inactive),
Oc1cccnc1/C=N/OCc1ccccc1,,> 100 µM (inactive),> 100 µM (inactive),> 100 µM (inactive),> 100 µM (inactive),> 100 µM (inactive),23.6 µM (inactive),> 100 µM (inactive),> 100 µM (inactive),,> 100 µM (inactive),> 100 µM (inactive),> 100 µM (inactive),> 100 µM (inactive),68.2 µM (inactive),> 100 µM (inactive),> 100 µM (inactive),> 100 µM (inactive)
N#CC(C(=N/O)/C(=N/O)C(C#N)c1ccc(Cl)cc1)c1ccc(Cl)cc1 (centres undefined),> 100 µM (inactive),42 µM (inactive),,42.9 µM (inactive),> 100 µM (inactive),> 100 µM (inactive),46.7 µM (inactive),> 100 µM (inactive),> 100 µM (inactive),> 100 µM (inactive),64.6 µM (inactive),,> 100 µM (inactive),,> 100 µM (inactive),> 100 µM (inactive),> 100 µM (inactive),75.5 µM (inactive)
O=C1NC2(CCCCC2)C2=C1CCCCC2,> 100 µM (inactive),> 100 µM (inactive),> 100 µM (inactive),> 100 µM (inactive),> 100 µM (inactive),> 100 µM (inactive),> 100 µM (inactive),> 100 µM (inactive),> 100 µM (inactive),> 100 µM (inactive),> 100 µM (inactive),> 100 µM (inactive),> 100 µM (inactive),> 100 µM (inactive),> 100 µM (inactive),> 100 µM (inactive),> 100 µM (inactive),
O=C(CCc1nnc2s/c(=C\c3ccccc3[N+](=O)[O-])c(=O)n12)Nc1cc(Cl)c(Cl)cc1Cl,92.9 µM (inactive),20.5 µM (inactive),34.1 µM (inactive),,63.4 µM (inactive),35.8 µM (inactive),22 µM (inactive),30.1 µM (inactive),21.1 µM (inactive),14.7 µM (inactive),83.4 µM (inactive),,27.4 µM (inactive),21 µM (inactive),31.6 µM (inactive),18.2 µM (inactive),19.5 µM (inactive),16.4 µM (inactive)
O=c1cccccc1NCCCCNc1cccccc1=O,71.1 µM (inactive),> 100 µM (inactive),30 µM (inactive),83 µM (inactive),> 100 µM (inactive),54.8 µM (inactive),,61 µM (inactive),,50.8 µM (inactive),> 100 µM (inactive),49.7 µM (inactive),> 100 µM (inactive),62.1 µM (inactive),42 µM (inactive),> 100 µM (inactive),> 100 µM (inactive),73.6 µM (inactive)
N=C(N)NS(=O)(=O)c1ccc(NCc2c3ccccc3[n+]([O-])c3ccccc23)cc1,20.4 µM (inactive),13.5 µM (inactive),14 µM (inactive),21.3 µM (inactive),74.6 µM (inactive),17 µM (inactive),,18.8 µM (inactive),,23.8 µM (inactive),68.5 µM (inactive),6.08 µM (inactive),3.43 µM (inactive),1.94 µM (inactive),15.2 µM (inactive),46.1 µM (inactive),30.4 µM (inactive),9.55 µM (inactive)
